# Laboratory results from patent publication US7817840B2, “Predicting hepatotoxicity using cell based assays” (Cytokinetics, Inc., priority 2003, dated 2010).
# Columns and labels:
# bile flow = conditions: rats; cited from earlier work
# Primary rat hepatocytes = assay: MTS/PMS cell viability (hepatotoxicity) assay, 24-hour exposure; type: cell-based; conditions: Hepatocyte, 9-point dilution series, read-out: IC50 (cell viability, formazan absorbance as percent of untreated control)
# Procedure: To measure the viability of hepatocytes after plating, an aqueous CellTiter Non-radioactive Cell Proliferation Assay may be used (Promega, Madison, Wis.). This assay can also be used to measure the hepatoxicity of a test compound.
# In one example of the assay, hepatoxicity is determined by assaying rat hepatocytes for viability following a 24-hour exposure to a 9-point dilution series of compound (to allow assessment of dose). Cell viability is determined by measuring the absorbance of formazon, a product formed by the bioreduction of MTS/PMS, commercially available reagents. […]
# With reference to FIG. 6, in a sterile 2 mL v-bottom assay block, dispense 2.5 μl of compound at 400× highest desired concentration to wells in column 3, rows B through G. (six different compounds per block, one for each row, edge wells are not used due to evaporation). […] Next, add 250 μL of media containing 0.2% Triton X-100 to column 2, rows E, F, and G. ODs (optical density or absorbance) from this well will be used to subtract out for background absorbance of dead cells and vehicle. […]
# Day 3—MTS Addition and OD Reading
# A. After 24 hours of incubation with drug, remove plates from incubator and add 40 μl MTS/PMS to each well. […] Read ODs at 490 nm after a 5 second shaking cycle in a ninety-six well spectrophotometer. […]
# [1] = tested on: human hepatoma cell line HepG2; conditions: HepG2 cells incubated with compound; previous studies; cited from earlier work
Compound,Nile Red binding (lipid accumulation) [1],also measured
C=C1[C@@H](C)[C@H]2[C@H](Cc3ccccc3)NC(=O)[C@]23OC(=O)/C=C/[C@H](O)CCC[C@@H](C)C/C=C/[C@H]3[C@@H]1O [cytochalasin B],–,effect on bile flow (bile flow): prompt arrest of bile flow
O=c1ccc2ccccc2o1 [Coumarin],–,IC50 (Primary rat hepatocytes): ~53 µM
CCCC(CCC)C(=O)O [valproic acid],increased Nile Red binding,–
CCSCC[C@H](N)C(=O)O [ethionine],increased Nile Red binding,–
estrogen,increased Nile Red binding,–
